Measured values published in US20220288110A1, “DRUG TREATMENT AND BIOMARKER PANEL TARGETED TO DISEASES DUE TO MULT[…] OF […]” (priority 2021, published 2022).
Values joined by “and” are separate entries in the source; they are usually repeats but may differ in a detail not shown here. Equal values may be shown once.

System: Severe Acute Respiratory Syndrome-Associated Coronavirus (SARS-CoV-1) Urbani strain
Design: species or system BALB/C mice
Conditions: in vivo

polyinosinic: polycytidylic acid
relative efficacy in reducing viral load in mouse lung (in words): lower viral titers at the 3-day mark
order of efficacy by percent reduction in viral load (mouse): H>G>F>A>D>B=C>I>J>E
virtual linear slope of viral reduction beyond 5 days post exposure: day mark at which it converged (mouse): 7 days
Lung virus titer (mouse, ip, 10 mg/kg/day): 7.2 CC ID/50 (Log 10) and 7.0 CC ID/50 (Log 10) and 6.5 CC ID/50 (Log 10) and 6.0 CC ID/50 (Log 10) and 6.2 CC ID/50 (Log 10)
percent reduction in viral load (mouse, ip, 10 mg/kg/day): 11.8%
